We go through 4 compounds from patent US6365618B1, “Administration of carvedilol to mitigate tardive movement disorders, psychosis, mania, and depression” (priority 2000, dated 2002).

Data set [1] can be described thus: Side effects of carvedilol in patients. Type of data set: in vivo, human. As for the experimental part: (§1) Clozapine is recognized as a drug that, because of dangerous side-effects, is reserved as the last resort after the failure of long courses and high doses of several other antipsychotic medications. […] Carvedilol 6.25 mg once daily was then started. On 11/15 the carvedilol dose was increased to 6.25 mg twice daily. […] On the ninth hospital day carvedilol was discontinued.

Data set [2] deals with tardive akathisia. Put plainly: Case reports: oral carvedilol, agitated movements of tardive akathisia. Type of data set: in vivo, human. From the text: These movements were consistent with tardive dyskinesia. […] They mentioned having been told by several psychiatrists that […] has tardive dyskinesia, and that […]'d previously taken numerous different antipsychotic drugs, including risperidone, olanzapine, and clozapine. Clozapine is recognized as a drug that, because of dangerous side-effects, is reserved as the last resort after the failure of long courses and high doses of several other antipsychotic medications. On the third hospital day, a Friday (Nov. 13, 1998), the tongue protrusion movements continued unchanged. Carvedilol 6.25 mg once daily was then started. On 11/15 the carvedilol dose was increased to 6.25 mg twice daily. When next evaluated, at 9am on Monday 11/16, the tongue protrusions were absent. The absence of dyskinesia persisted despite the patient's repeated expressions of anxiety and anxious thoughts. […] Agitation then decreased, a sign of improvement in tardive akathisia. On the ninth hospital day carvedilol was discontinued. The patient was discharged on the 15th hospital day, without recurrence of any tongue protrusion, and without observable agitation. […] They spontaneously complained that children in their neighborhood mocked them and called them a witch because of the tongue movements. They stated that […] avoids leaving the house because of harassment by the children. […]

The conditions of data set [3]: cited from earlier work.
In data set [4] the test system is tardive dystonia. Kind of data set: Case report: oral carvedilol, tardive dystonia and swallowing difficulty. It is filed as in vivo, human. The note with it: Case #4; carvedilol 6.25 mg twice daily; 28 hours, after three doses. From the text:
This person was in the hospital because of difficulty swallowing. This began about a year prior to hospitalization while taking haloperidol and lithium medications. Increasingly they would cough while eating or drinking. […] The swallowing difficulty worsened despite replacement of lithium and haloperidol with divalproex and olanzapine. […] This aspiration put them at risk of aspiration pneumonia, which is disabling and can be life-threatening. For them to receive water and food a tube was surgically inserted between their stomach and the outside of their abdomen. […] When they tried to drink water from a cup these movements obviously interfered with swallowing. […] On the Abnormal Involuntary Movement SCALE (AIMS) they scored 13. They then received carvedilol 6.25 mg twice daily. Twenty-eight hours later, after three doses, their swallowing was rated by the Speech Therapy Department as 70% improved.

Data set [5] relates to tardive dyskinesia. Kind of data set: Case reports: oral carvedilol in hospitalized patients with tardive dyskinesia. It is filed as in vivo, human. As for the experimental part: as §1
On the first hospital day carvedilol 3.125 mg twice daily was started. […] Carvedilol was then restarted. […] Carvedilol was continued for a month.
This person was admitted to the hospital for the treatment of an anxiety disorder whose symptoms included insomnia, nightmares, unhappiness, suicidality, continual worry, and panic attacks. They had previously taken the antidepressants nortriptyline and fluoxetine, and was taking nefazodone 375 mg/day for one year. They were also taking the antihypertensive medication benazepril 40 mg/day, and the sleeping medication zaleplon 10 mg/day. […] They then received carvedilol 3.125 mg twice daily.
This person was in the hospital because of difficulty swallowing. […] This aspiration put them at risk of aspiration pneumonia, which is disabling and can be life-threatening. For them to receive water and food a tube was surgically inserted between their stomach and the outside of their abdomen. […] They then received carvedilol 6.25 mg twice daily.

The conditions of data set [6]: cited from earlier work. This is another data set of the same source.
Data set [7] has as its system acute dystonias induced by antipsychotic medication. The conditions noted are these: monkeys; cited from earlier work.
In data set [8] the test system is tardive dyskinesia. The conditions noted are these: most studies; cited from earlier work.
The test system of data set [9] is orofacial movements caused by haloperidol. The conditions noted are these: one-day and two-week trials; cited from earlier work.
Setting [10] is: Case #3, carvedilol 3.125 mg twice daily, 24 hours, after two doses.

Take `COc1ccccc1OCCNCC(O)COc1cccc2[nH]c3ccccc3c12` (racemic) [carvedilol, ±-1-(carbazol-4-yloxy)-3-[[2-(o-methyoxyphenoxy)ethyl]amino]-2-propanol]: the faintness or bradycardia result in data set [1] (Case #1, carvedilol 6.25 mg twice daily) is recorded as “lack of any faintness or bradycardia”. The side effects result in data set [1] (usually effective doses to treat TD) is on record as “non-existent or mild”. In data set [2] (Case #1, carvedilol 6.25 mg in the morning and 12.5 mg at bedtime), the “agitation (sign of tardive akathisia)” value is listed as “decreased”. In [2] (Case #2, at discharge after one week of carvedilol), the “agitated movements consistent with tardive akathisia” value is given as “no agitated movements”. The “in vitro antioxidant activity” value in data set [3] is listed as “exceptionally potent”. Further, in data set [4], the facial dystonia entry is reported as “disappeared”, the neck dystonia result is “decreased from moderate to mild” and the “swallowing improvement rated by Speech Therapy Department” value worked out at 70%. For the same compound, in data set [5] (Case #1, carvedilol 6.25 mg once daily, then twice daily, evaluated after 3 days), the tongue protrusions result is recorded as “absent”. Moreover, the tongue protrusions result in [5] (Case #2, carvedilol 3.125 mg twice daily, next day) was “no extensions of the tongue out of the mouth occurred”. Also, the “tongue protrusions after carvedilol restarted” value in [5] (Case #2, rehospitalized, carvedilol restarted, beginning on the next day) was “no longer seen”. Moreover, in [5] (setting [10]), the chewing movements entry is “gone”; the “lip and tongue movements” value was “in normal range”. Further, in [5] (Case #3, carvedilol 3.125 mg twice daily, 24 hours, after two doses, score before treatment 11), the “AIMS score (Abnormal Involuntary Movement Scale)” value is reported as 6. Moreover, in [5] (Case #4, carvedilol 6.25 mg twice daily, 28 hours, after three doses), the tongue dyskinesia result is recorded as “decreased from mild to marginal”. In addition, the “AIMS score (Abnormal Involuntary Movement Scale)” value in data set [5] (Case #4, carvedilol 6.25 mg twice daily, 28 hours, after three doses, score before treatment 13) worked out at 8. For the same compound, the average elimination half-life result in data set [6] (from the human body) is “about 8 hours”. For the same compound, the absorption result in [6] (taken by mouth) was “rapid and complete”.
Consider `C#CCN(C)Cc1ccccc1` [pargyline], for which the “acute dystonias induced by antipsychotic medication” value in [7] is “reduced”.
On to vitamin E, for which, in data set [8], the “improvement of TD” value is listed as “no significant improvement”.
As to `CC(C)NCC(O)COc1cccc2ccccc12` (stereo not drawn) [propranolol], the “orofacial movements caused by haloperidol” value in [9] is given as “did not diminish”.
